One assay deals with T1, human V2 receptor (Homo sapiens, UniProt P30518).
T1 construct: expressed in transfected cells; host or cells: CHO K1 (ATCC) expressing firefly luciferase under a CRE-responsive promoter
Kind of assay: Cellular in vitro assay for determining vasopressin receptor activity, V2 receptor cell line (CHO, CRE-luciferase). It is filed as cell-based. The following applies: CHO cell line transfected with human V2 receptor; [Arg8]-vasopressin at EC50 concentration, 3 hours; read-out: IC50 hV2.

Another assay deals with T2, human V1a receptor (Homo sapiens, UniProt P37288).
T2 construct: expressed in transfected cells; host or cells: CHO K1 (ATCC), also stably transfected with a modified aequorin
Kind of assay: Cellular in vitro assay for determining vasopressin receptor activity, V1a receptor cell line (CHO, aequorin luminescence). The following applies: for IC50: CHO cell line transfected with human V1a receptor, [Arg]-vasopressin at EC50 concentration, read-out: IC50 hV1a; for ratio IC50 hV2/hV1a: selectivity ratio IC50 hV2 / IC50 hV1a. Format: cell-based. The essentials: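 Luminescence from reconstituted aequorin, reporting intracellular calcium release, was measured immediately after adding [Arg]-vasopressin at EC50 concentration to CHO K1 cells pretreated 10 minutes with graded compound concentrations. Inhibition gave IC50 values.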

Data on 18 molecules can be found in patent publication US11173151B2, “Substituted triazole derivatives and uses thereof” (BAYER AKTIENGESELLSCHAFT, priority 2017, dated 2021).

T2 sequence (P37288 whole entry): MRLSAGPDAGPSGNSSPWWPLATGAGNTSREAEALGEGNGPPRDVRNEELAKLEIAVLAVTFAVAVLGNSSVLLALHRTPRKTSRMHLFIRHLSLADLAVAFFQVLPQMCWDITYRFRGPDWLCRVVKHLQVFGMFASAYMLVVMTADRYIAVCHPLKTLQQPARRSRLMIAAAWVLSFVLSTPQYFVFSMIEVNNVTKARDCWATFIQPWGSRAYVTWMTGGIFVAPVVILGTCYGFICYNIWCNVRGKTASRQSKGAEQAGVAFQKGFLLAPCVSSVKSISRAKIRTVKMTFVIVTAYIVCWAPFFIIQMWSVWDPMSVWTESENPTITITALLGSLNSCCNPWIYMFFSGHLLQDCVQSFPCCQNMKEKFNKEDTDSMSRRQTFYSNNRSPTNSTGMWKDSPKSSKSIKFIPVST
T1 sequence (P30518 whole entry): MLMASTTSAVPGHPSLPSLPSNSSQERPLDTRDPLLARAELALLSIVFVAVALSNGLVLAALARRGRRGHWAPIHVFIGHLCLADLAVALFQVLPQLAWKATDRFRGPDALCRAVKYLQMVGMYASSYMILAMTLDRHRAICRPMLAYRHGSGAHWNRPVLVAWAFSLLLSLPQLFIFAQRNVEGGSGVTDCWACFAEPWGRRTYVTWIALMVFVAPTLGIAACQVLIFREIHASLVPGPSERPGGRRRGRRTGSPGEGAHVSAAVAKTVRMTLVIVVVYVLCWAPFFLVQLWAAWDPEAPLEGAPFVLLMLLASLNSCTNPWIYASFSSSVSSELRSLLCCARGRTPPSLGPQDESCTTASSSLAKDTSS

As to `O=C(Nc1cccnc1-n1cnc(Cn2nc(-c3ccc(Cl)cc3)n(C[C@H](O)C(F)(F)F)c2=O)n1)C1CC1` [Example 44, N-{2-[3-({3-(4-Chlorophenyl)-5-oxo-4-[(2S)-3,3,3-trifluoro-2-hydroxypropyl]-4,5-dihydro-1H-1,2,4-triazol-1-yl}methyl)-1H-1,2,4-triazol-1-yl]pyridin-3-yl}cyclopropanecarboxamide], the IC50 at human V2 receptor came out at 360 nM; at human V1a receptor it was 4.25 nM. For the same molecule, the “ratio IC50 hV2/hV1a” value on human V1a receptor is 84.7.

Consider `O=C(CC1CC1)Nc1cccnc1-n1cnc(Cn2nc(-c3ccc(Cl)cc3)n(C[C@H](O)C(F)(F)F)c2=O)n1` [Example 46, N-{2-[3-({3-(4-Chlorophenyl)-5-oxo-4-[(2S)-3,3,3-trifluoro-2-hydroxypropyl]-4,5-dihydro-1H-1,2,4-triazol-1-yl}methyl)-1H-1,2,4-triazol-1-yl]pyridin-3-yl}-2-cyclopropylacetamide], for which, at human V2 receptor, the IC50 came out at 1570 nM. Besides, at human V1a receptor, the IC50 is 32 nM and the “ratio IC50 hV2/hV1a” value is recorded as 49.0.

Consider `O=C(Nc1cccnc1-n1cnc(Cn2nc(-c3ccc(Cl)cc3)n(C[C@H](O)C(F)(F)F)c2=O)n1)C1(C(F)(F)F)CC1` [Example 47, N-{2-[3-({3-(4-Chlorophenyl)-5-oxo-4-[(2S)-3,3,3-trifluoro-2-hydroxypropyl]-4,5-dihydro-1H-1,2,4-triazol-1-yl}methyl)-1H-1,2,4-triazol-1-yl]pyridin-3-yl}-1-(trifluoromethyl)cyclopropanecarboxamide], for which the IC50 on human V2 receptor worked out at 283 nM. Also, at human V1a receptor, the IC50 is 7 nM and the “ratio IC50 hV2/hV1a” value was found to be 40.5.

For the molecule `O=C(Nc1cccnc1-n1cnc(Cn2nc(-c3ccc(Cl)cc3)n(C[C@H](O)C(F)(F)F)c2=O)n1)C1CC(F)(F)C1` [Example 48, N-{2-[3-({3-(4-Chlorophenyl)-5-oxo-4-[(2S)-3,3,3-trifluoro-2-hydroxypropyl]-4,5-dihydro-1H-1,2,4-triazol-1-yl}methyl)-1H-1,2,4-triazol-1-yl]pyridin-3-yl}-3,3-difluorocyclobutanecarboxamide], the IC50 at human V2 receptor was 557 nM; at human V1a receptor, 7.05 nM. In addition, at human V1a receptor, the “ratio IC50 hV2/hV1a” value is on record as 79.0.

With `CS(=O)(=O)CC(=O)Nc1cccnc1-n1cnc(Cn2nc(-c3ccc(Cl)cc3)n(C[C@H](O)C(F)(F)F)c2=O)n1` [Example 49, N-{2-[3-({3-(4-Chlorophenyl)-5-oxo-4-[(2S)-3,3,3-trifluoro-2-hydroxypropyl]-4,5-dihydro-1H-1,2,4-triazol-1-yl}methyl)-1H-1,2,4-triazol-1-yl]pyridin-3-yl}-2-(methylsulfonyl)acetamide], the IC50 at human V2 receptor was found to be 1100 nM. On human V1a receptor, the IC50 is 4.8 nM and the “ratio IC50 hV2/hV1a” value came to 230.2.

On to `CS(=O)(=O)NCC(=O)Nc1cccnc1-n1cnc(Cn2nc(-c3ccc(Cl)cc3)n(C[C@H](O)C(F)(F)F)c2=O)n1` [Example 53, N-{2-[3-({3-(4-Chlorophenyl)-5-oxo-4-[(2S)-3,3,3-trifluoro-2-hydroxypropyl]-4,5-dihydro-1H-1,2,4-triazol-1-yl}methyl)-1H-1,2,4-triazol-1-yl]pyridin-3-yl}-N^2-(methylsulfonyl)glycinamide], for which the IC50 on human V2 receptor turned out to be 2250 nM. For the same molecule, at human V1a receptor, the IC50 stood at 31.5 nM and the “ratio IC50 hV2/hV1a” value stood at 71.4.

Take `O=C(Nc1cccnc1-n1cnc(Cn2nc(-c3ccc(Cl)cc3)n(C[C@H](O)C(F)(F)F)c2=O)n1)C1CC1F` (stereo partly drawn) [Example 54, N-{2-[3-({3-(4-Chlorophenyl)-5-oxo-4-[(2S)-3,3,3-trifluoro-2-hydroxypropyl]-4,5-dihydro-1H-1,2,4-triazol-1-yl}methyl)-1H-1,2,4-triazol-1-yl]pyridin-3-yl}-2-fluorocyclopropanecarboxamide]: the concentration for half-maximal inhibition (IC50) was determined as 407 nM at human V2 receptor and 4.5 nM at human V1a receptor. Also, on human V1a receptor, the “ratio IC50 hV2/hV1a” value amounted to 90.4.

With `O=C(Nc1cccnc1-n1cnc(Cn2nc(-c3ccc(Cl)cc3)n(C[C@H](O)C(F)(F)F)c2=O)n1)C1(F)CC1` [Example 57, N-{2-[3-({3-(4-Chlorophenyl)-5-oxo-4-[(2S)-3,3,3-trifluoro-2-hydroxypropyl]-4,5-dihydro-1H-1,2,4-triazol-1-yl}methyl)-1H-1,2,4-triazol-1-yl]pyridin-3-yl}-1-fluorocyclopropanecarboxamide], the IC50 on human V2 receptor came out at 503 nM. For the same molecule, on human V1a receptor, the IC50 worked out at 13 nM and the “ratio IC50 hV2/hV1a” value is on record as 38.7.

For the molecule `O=C(Nc1cccnc1-n1cnc(Cn2nc(-c3ccc(Cl)cc3)n(C[C@H](O)C(F)(F)F)c2=O)n1)C1CS(=O)(=O)C1` [Example 58, N-{2-[3-({3-(4-Chlorophenyl)-5-oxo-4-[(2S)-3,3,3-trifluoro-2-hydroxypropyl]-4,5-dihydro-1H-1,2,4-triazol-1-yl}methyl)-1H-1,2,4-triazol-1-yl]pyridin-3-yl}thietane-3-carboxamide 1,1-dioxide], the IC50 at human V2 receptor is 1140 nM. Besides, on human V1a receptor, the 50% inhibitory concentration (IC50) was 19.5 nM and the “ratio IC50 hV2/hV1a” value is listed as 58.3.

Take `O=C(Nc1cccnc1-n1cnc(Cn2nc(-c3ccc(Cl)cc3)n(C[C@H](O)C(F)(F)F)c2=O)n1)OCC(F)(F)F` [Example 62, 2,2,2-trifluoroethyl {2-[3-({3-(4-chlorophenyl)-5-oxo-4-[(2S)-3,3,3-trifluoro-2-hydroxypropyl]-4,5-dihydro-1H-1,2,4-triazol-1-yl}methyl)-1H-1,2,4-triazol-1-yl]pyridin-3-yl}carbamate]: on human V2 receptor, the IC50 was 957 nM. Moreover, on human V1a receptor, the IC50 was 19.5 nM and the “ratio IC50 hV2/hV1a” value is on record as 49.1.

`O=C(NCC(F)(F)F)Nc1cccnc1-n1cnc(Cn2nc(-c3ccc(Cl)cc3)n(C[C@H](O)C(F)(F)F)c2=O)n1` [Example 63, 1-{2-[3-({3-(4-Chlorophenyl)-5-oxo-4-[(2S)-3,3,3-trifluoro-2-hydroxypropyl]-4,5-dihydro-1H-1,2,4-triazol-1-yl}methyl)-1H-1,2,4-triazol-1-yl]pyridin-3-yl}-3-(2,2,2-trifluoroethyl)urea]: the IC50 on human V2 receptor came to 1150 nM; at human V1a receptor, 3.15 nM. Besides, the “ratio IC50 hV2/hV1a” value at human V1a receptor is 366.1.

With `O=c1n(Cc2ncn(-c3cccnc3N3CCOCC3)n2)nc(-c2ccc(Cl)cc2)n1C[C@H](O)C(F)(F)F` [Example 64, 5-(4-Chlorophenyl)-2-({1-[2-(morpholin-4-yl)pyridin-3-yl]-1H-1,2,4-triazol-3-yl}methyl)-4-[(2S)-3,3,3-trifluoro-2-hydroxypropyl]-2,4-dihydro-3H-1,2,4-triazol-3-one], the values for the IC50 at human V2 receptor and on human V1a receptor were 535 nM and 16 nM, respectively. Moreover, the “ratio IC50 hV2/hV1a” value at human V1a receptor was 33.4.

Consider `CC(C)(N)CNc1ncccc1-n1cnc(Cn2nc(-c3ccc(Cl)cc3)n(C[C@H](O)C(F)(F)F)c2=O)n1` [Example 65, 2-[(1-{2-[(2-Amino-2-methylpropyl)amino]pyridin-3-yl}-1H-1,2,4-triazol-3-yl)methyl]-5-(4-chlorophenyl)-4-[(2S)-3,3,3-trifluoro-2-hydroxypropyl]-2,4-dihydro-3H-1,2,4-triazol-3-one], for which, at human V2 receptor, the IC50 turned out to be 380 nM. Also, at human V1a receptor, the IC50 was determined as 190 nM and the “ratio IC50 hV2/hV1a” value came out at 2.0.

As for `NC(=O)[C@H]1CCCN1c1ncccc1-n1cnc(Cn2nc(-c3ccc(Cl)cc3)n(C[C@H](O)C(F)(F)F)c2=O)n1` [Example 66, 1-{3-[3-({3-(4-Chlorophenyl)-5-oxo-4-[(2S)-3,3,3-trifluoro-2-hydroxypropyl]-4,5-dihydro-1H-1,2,4-triazol-1-yl}methyl)-1H-1,2,4-triazol-1-yl]pyridin-2-yl}-D-prolinamide], the IC50 on human V2 receptor was 363 nM. On human V1a receptor, the IC50 was found to be 43.5 nM and the “ratio IC50 hV2/hV1a” value came out at 8.4.

For `CC(C)(O)CNc1ncccc1-n1cnc(Cn2nc(-c3ccc(Cl)cc3)n(C[C@H](O)C(F)(F)F)c2=O)n1` [Example 67, 5-(4-Chlorophenyl)-2-[(1-{2-[(2-hydroxy-2-methylpropyl)amino]pyridin-3-yl}-1H-1,2,4-triazol-3-yl)methyl]-4-[(2S)-3,3,3-trifluoro-2-hydroxypropyl]-2,4-dihydro-3H-1,2,4-triazol-3-one], the 50% inhibitory concentration (IC50) at human V2 receptor came to 157 nM. Moreover, on human V1a receptor, the IC50 worked out at 76.5 nM and the “ratio IC50 hV2/hV1a” value is 2.0.

In the case of `NC(=O)[C@@H]1CCCN1c1ncccc1-n1cnc(Cn2nc(-c3ccc(Cl)cc3)n(C[C@H](O)C(F)(F)F)c2=O)n1` [Example 68, 1-{3-[3-({3-(4-Chlorophenyl)-5-oxo-4-[(2S)-3,3,3-trifluoro-2-hydroxypropyl]-4,5-dihydro-1H-1,2,4-triazol-1-yl}methyl)-1H-1,2,4-triazol-1-yl]pyridin-2-yl}-L-prolinamide], the IC50 on human V2 receptor is 437 nM. Further, at human V1a receptor, the IC50 is 63.5 nM and the “ratio IC50 hV2/hV1a” value is on record as 6.9.

Consider `O=c1n(Cc2ncn(-c3cccnc3NCCC(F)(F)F)n2)nc(-c2ccc(Cl)cc2)n1C[C@H](O)C(F)(F)F` [Example 69, 5-(4-Chlorophenyl)-4-[(2S)-3,3,3-trifluoro-2-hydroxypropyl]-2-[(1-{2-[(3,3,3-trifluoropropyl)amino]pyridin-3-yl}-1H-1,2,4-triazol-3-yl)methyl]-2,4-dihydro-3H-1,2,4-triazol-3-one], for which the IC50 at human V2 receptor worked out at 320 nM. Further, at human V1a receptor, the IC50 was found to be 235 nM and the “ratio IC50 hV2/hV1a” value was found to be 1.4.

Turning to `O=C1CCC(CNc2ncccc2-n2cnc(Cn3nc(-c4ccc(Cl)cc4)n(C[C@H](O)C(F)(F)F)c3=O)n2)N1` (stereo partly drawn) [Example 70, 5-(4-Chlorophenyl)-2-{[1-(2-{[(5-oxopyrrolidin-2-yl)methyl]amino}pyridin-3-yl)-1H-1,2,4-triazol-3-yl]methyl}-4-[(2S)-3,3,3-trifluoro-2-hydroxypropyl]-2,4-dihydro-3H-1,2,4-triazol-3-one], the IC50 at human V2 receptor worked out at 690 nM. Besides, at human V1a receptor, the IC50 was found to be 150 nM and the “ratio IC50 hV2/hV1a” value is on record as 4.6.
